Laboratory results: patent US8148391B2 (Cephalon, Inc., priority 2006, dated 2012)
Read-outs that look alike come from different tables or passages of the source. Values belong to the compound of their own block, whether it stands above or below them.

Experiments:
[1] = target: T1, baculovirus-expressed ALK (Homo sapiens, UniProt Q9UM73); experiment: ALK Kinase Assay (ELISA-type, time-resolved fluorescence); assay type: biochemical
T1 construct: host or cells: baculovirus expression system
Procedure, shortened: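 Wells were coated with phospholipase C-γ at 10 μg/mL in Tris-buffered saline. Adding 30 ng/ml enzyme started the reaction, which ran at 37° C for 15 minutes before Eu-N1 PT66 antibody detection. Percent inhibition versus log10 concentration gave IC50 by variable-slope fit.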

[2] = target: T2, c-Met (cytoplasmic domain) (Homo sapiens, UniProt P08581); experiment: c-Met Kinase Assay (same methods as for ALK, with modifications); assay type: biochemical
T2 construct: 10 ng/mL c-Met (cytoplasmic domain, Invitrogen Corporation #PV3143); purchased Invitrogen Corporation PV3143
Procedure, shortened: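 Steps: coat wells with PLC-γ (10 μg/mL, Tris-buffered saline); add 10 ng/mL c-Met cytoplasmic domain to initiate; incubate 15 min, 37° C; detect phosphoproduct via Eu-N1 PT66 antibody.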

[3] = ALK kinase inhibition, 1 μM ATP (Km level), read-out: ALK Activity
[4] = c-Met kinase inhibition, 1 μM ATP (Km level), read-out: cMet Activity
[5] = 1 μM ATP (Km level), 30 ng/ml ALK, 37° C., 15 minutes, read-out: ALK Activity (ALK kinase inhibition, IC50 class)
[6] = 1 μM ATP (Km level), 10 ng/mL c-Met, read-out: cMet Activity (c-Met kinase inhibition, IC50 class)
[7] = 1 μM ATP (Km level), read-out: ALK Activity (ALK Kinase Inhibition, IC50)
[8] = 1 μM ATP (Km level), read-out: cMet Activity (c-Met Kinase Inhibition, IC50)
[9] = ALK kinase inhibition, 1 μM ATP, read-out: ALK Activity
[10] = c-Met kinase inhibition, 1 μM ATP, read-out: cMet Activity

T2 sequence (P08581 956-1390 limits assumed): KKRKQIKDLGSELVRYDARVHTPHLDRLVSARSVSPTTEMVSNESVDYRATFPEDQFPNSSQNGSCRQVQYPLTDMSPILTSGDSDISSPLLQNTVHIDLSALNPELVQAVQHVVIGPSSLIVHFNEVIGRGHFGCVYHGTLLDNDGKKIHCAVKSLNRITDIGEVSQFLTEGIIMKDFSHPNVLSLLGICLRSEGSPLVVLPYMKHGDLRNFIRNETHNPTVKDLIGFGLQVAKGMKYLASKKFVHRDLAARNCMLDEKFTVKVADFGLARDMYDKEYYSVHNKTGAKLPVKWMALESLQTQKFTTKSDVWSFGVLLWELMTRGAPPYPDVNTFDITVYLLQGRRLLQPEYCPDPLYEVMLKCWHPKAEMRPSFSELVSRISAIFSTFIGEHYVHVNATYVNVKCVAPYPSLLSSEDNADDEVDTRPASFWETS
T1 sequence (Q9UM73 19-1620): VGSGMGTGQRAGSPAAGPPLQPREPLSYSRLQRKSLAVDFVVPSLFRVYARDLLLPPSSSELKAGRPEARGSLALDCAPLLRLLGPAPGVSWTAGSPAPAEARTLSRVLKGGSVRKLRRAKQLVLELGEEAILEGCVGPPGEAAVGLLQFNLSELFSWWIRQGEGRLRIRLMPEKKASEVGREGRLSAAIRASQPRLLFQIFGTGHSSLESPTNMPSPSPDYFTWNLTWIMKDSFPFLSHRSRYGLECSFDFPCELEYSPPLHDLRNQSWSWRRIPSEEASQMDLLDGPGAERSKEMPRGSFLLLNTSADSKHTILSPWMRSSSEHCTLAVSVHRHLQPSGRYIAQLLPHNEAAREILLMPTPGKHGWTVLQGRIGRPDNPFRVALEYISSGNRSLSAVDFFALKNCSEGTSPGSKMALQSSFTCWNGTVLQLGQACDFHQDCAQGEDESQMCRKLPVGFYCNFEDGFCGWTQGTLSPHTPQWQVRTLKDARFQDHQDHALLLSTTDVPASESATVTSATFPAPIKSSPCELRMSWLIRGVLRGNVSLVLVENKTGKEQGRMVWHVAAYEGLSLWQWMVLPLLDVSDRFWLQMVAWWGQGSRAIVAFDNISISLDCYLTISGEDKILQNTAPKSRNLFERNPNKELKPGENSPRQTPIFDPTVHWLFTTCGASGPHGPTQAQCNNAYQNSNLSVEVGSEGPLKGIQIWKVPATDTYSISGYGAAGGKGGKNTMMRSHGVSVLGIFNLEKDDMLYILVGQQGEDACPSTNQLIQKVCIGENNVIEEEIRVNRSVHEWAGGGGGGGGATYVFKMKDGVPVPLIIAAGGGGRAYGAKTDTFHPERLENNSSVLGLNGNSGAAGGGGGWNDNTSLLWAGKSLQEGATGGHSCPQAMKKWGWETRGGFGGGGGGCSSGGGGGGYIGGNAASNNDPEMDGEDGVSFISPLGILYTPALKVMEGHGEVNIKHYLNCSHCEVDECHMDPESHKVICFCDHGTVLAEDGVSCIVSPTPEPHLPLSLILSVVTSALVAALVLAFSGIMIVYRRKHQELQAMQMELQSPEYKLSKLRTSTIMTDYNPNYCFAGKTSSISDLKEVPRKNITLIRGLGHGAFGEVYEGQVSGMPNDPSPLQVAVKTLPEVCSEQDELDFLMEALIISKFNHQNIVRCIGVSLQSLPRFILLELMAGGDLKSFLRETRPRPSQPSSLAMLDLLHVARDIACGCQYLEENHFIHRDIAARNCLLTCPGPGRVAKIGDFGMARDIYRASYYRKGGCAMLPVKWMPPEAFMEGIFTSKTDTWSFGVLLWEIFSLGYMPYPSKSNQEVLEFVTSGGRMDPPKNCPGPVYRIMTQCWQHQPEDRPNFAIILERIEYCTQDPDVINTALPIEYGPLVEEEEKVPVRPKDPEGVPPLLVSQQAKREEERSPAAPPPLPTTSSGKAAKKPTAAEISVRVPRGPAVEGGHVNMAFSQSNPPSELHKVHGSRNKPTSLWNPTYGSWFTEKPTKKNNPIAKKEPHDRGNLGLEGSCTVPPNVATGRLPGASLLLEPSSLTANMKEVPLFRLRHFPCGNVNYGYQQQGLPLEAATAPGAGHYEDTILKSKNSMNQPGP

IC50 [1, 3]: < 100 nM | IC50 [2, 4]: 100 to 1000 nM
Compound: COCCN1CCc2ccc(Nc3ncc(Cl)c(Nc4ccccc4-c4ncc[nH]4)n3)cc2CC1 [Example 221, 5-Chloro-N*4*-[2-(1H-imidazol-2-yl)-phenyl]-N*2*-[3-(2-methoxy-ethyl)-2,3,4,5-tetrahydro-1H-benzo[d]azepin-7-yl]-pyrimidine-2,4-diamine]

IC50 [1, 5]: < 100 nM | IC50 [2, 6]: < 100 nM
Compound: CCNC(=O)c1cccc(F)c1Nc1nc(Nc2ccc3c(c2)C(C)(C)CCC(=O)N3)ncc1Cl [Example 1365, 2-[5-Chloro-2-(5,5-dimethyl-2-oxo-2,3,4,5-tetrahydro-1H-benzo[b]azepin-7-ylamino)-pyrimidin-4-ylamino]-N-ethyl-3-fluoro-benzamide]

IC50 [1, 3]: < 100 nM | IC50 [2, 4]: 100 to 1000 nM
Compound: CN1CCCCc2cc(Nc3ncc(Cl)c(N[C@@H]4CCCC[C@H]4NS(C)(=O)=O)n3)ccc21 [Example 104, N-{(1R,2R)-2-[5-Chloro-2-(1-methyl-2,3,4,5-tetrahydro-1H-benzo[b]azepin-7-ylamino)-pyrimidin-4-ylamino]-cyclohexyl}-methanesulfonamide]

IC50 [1, 3]: < 100 nM | IC50 [2, 4]: < 100 nM
Compound: CC(=O)c1ccccc1Nc1nc(Nc2ccc3c(c2)CCCC(=O)N3C)ncc1Cl [Example 351, 7-[4-(2-Acetyl-phenylamino)-5-chloro-pyrimidin-2-ylamino]-1-methyl-1,3,4,5-tetrahydro-benzo[b]azepin-2-one]

IC50 [1, 5]: 100 to 1000 nM | IC50 [2, 6]: 1000 to 10000 nM
Compound: COCCN1CCc2ccc(Nc3ncc(Cl)c(N[C@H]4CC[C@H](N(CC#N)S(C)(=O)=O)CC4)n3)cc2CC1 [Example 1385, trans-N-(4-{5-Chloro-2-[3-(2-methoxy-ethyl)-2,3,4,5-tetrahydro-1H-benzo[d]azepin-7-ylamino]-pyrimidin-4-ylamino}-cyclohexyl)-N-cyanomethyl-methanesulfonamide]

Compound: C#CCN1CC2CCC(C1)c1cc(Nc3ncc(Cl)c(Nc4ccccc4C(=O)NC)n3)ccc12 (stereo not shown) [Example 279, 2-[5-Chloro-2-(10-prop-2-ynyl-10-aza-tricyclo[6.3.2.0*2,7*]trideca-2,4,6-trien-4-ylamino)-pyrimidin-4-ylamino]-N-methyl-benzamide]
IC50 [1, 3]: < 100 nM | IC50 [2, 4]: < 100 nM

IC50 [1, 3]: 100 to 1000 nM | IC50 [2, 4]: > 10000 nM
Compound: COCCN1CCc2ccc(Nc3ncc(Cl)c(NCC(C)(C)NS(C)(=O)=O)n3)cc2CC1 [Example 305, N-(2-{5-Chloro-2-[3-(2-methoxy-ethyl)-2,3,4,5-tetrahydro-1H-benzo[d]azepin-7-ylamino]-pyrimidin-4-ylamino}-1,1-dimethyl-ethyl)-methanesulfonamide]

IC50 [1, 5]: 100 to 1000 nM | IC50 [2, 6]: > 10000 nM
Compound: CCN1C(=O)C(N)CCc2c1ccc(Nc1ncc(Cl)c(N[C@@H]3CCCC[C@H]3NS(C)(=O)=O)n1)c2OC (stereo partly drawn) [Example 1338, N-{(1R,2R)-2-[2-(3-Amino-1-ethyl-6-methoxy-2-oxo-2,3,4,5-tetrahydro-1H-benzo[b]azepin-7-ylamino)-5-chloro-pyrimidin-4-ylamino]-cyclohexyl}-methanesulfonamide]

IC50 [1, 7]: < 100 nM | IC50 [2, 8]: < 100 nM
Compound: CNC(=O)c1cccc(F)c1Nc1nc(Nc2ccc3c(c2)CCC(NCC(F)F)CC3)ncc1Cl (stereo not shown) [Example 664, 2-{5-Chloro-2-[7-(2,2-difluoro-ethylamino)-6,7,8,9-tetrahydro-5H-benzocyclohepten-2-ylamino]-pyrimidin-4-ylamino}-3-fluoro-N-methyl-benzamide]

IC50 [1, 3]: < 100 nM | IC50 [2, 4]: 1000 to 10000 nM
Compound: CCN1CCN(CC)c2cc(Nc3ncc(Cl)c(N[C@@H]4CCCC[C@H]4NS(C)(=O)=O)n3)ccc2C1=O [Example 424, N-{(1R,2R)-2-[5-Chloro-2-(1,4-diethyl-5-oxo-2,3,4,5-tetrahydro-1H-benzo[e][1,4]diazepin-8-ylamino)-pyrimidin-4-ylamino]-cyclohexyl}-methanesulfonamide]

IC50 [1, 3]: < 100 nM | IC50 [2, 4]: 100 to 1000 nM
Compound: CNC(=O)c1ccccc1Nc1nc(Nc2ccc3c(c2)CCN(CC(C)(C)F)CC3)ncc1Cl [Example 39, 2-{5-Chloro-2-[3-(2-fluoro-2-methyl-propyl)-2,3,4,5-tetrahydro-1H-benzo[d]azepin-7-ylamino]-pyrimidin-4-ylamino}-N-methyl-benzamide]

IC50 [1, 7]: < 100 nM | IC50 [2, 8]: > 10000 nM
Compound: COc1cc2c(cc1Nc1ncc(Cl)c(Nc3ccc(N4CCN(C)CC4)cc3OC)n1)CCNC(=O)C2 [Example 778, 7-{5-Chloro-4-[2-methoxy-4-(4-methyl-piperazin-1-yl)-phenylamino]-pyrimidin-2-ylamino}-8-methoxy-1,3,4,5-tetrahydro-benzo[d]azepin-2-one]

IC50 [1, 9]: 100 to 1000 nM | IC50 [2, 10]: < 100 nM
Compound: CCN1C(=O)C(NC(=O)COC)CCc2ccc(Nc3ncc(Cl)c(Nc4c(F)cccc4C(=O)NC)n3)cc21 (stereo not shown) [Example 1498, 2-{5-Chloro-2-[1-ethyl-3-(2-methoxy-acetylamino)-2-oxo-2,3,4,5-tetrahydro-1H-benzo[b]azepin-8-ylamino]-pyrimidin-4-ylamino}-3-fluoro-N-methyl-benzamide]

IC50 [1, 9]: < 100 nM | IC50 [2, 10]: > 10000 nM
Compound: COc1cc2c(cc1Nc1ncc(Cl)c(N[C@@H]3[C@H](C(N)=O)[C@H]4C=C[C@@H]3C4)n1)CCOC(=O)N2C [Example 1509, (1R,2R,3S,4S)-3-[5-Chloro-2-(3-methoxy-5-methyl-6-oxo-5,6,8,9-tetrahydro-7-oxa-5-aza-benzocyclohepten-2-ylamino)-pyrimidin-4-ylamino]-bicyclo[2.2.1]hept-5-ene-2-carboxylic acid amide]

IC50 [1, 3]: < 100 nM | IC50 [2, 4]: < 100 nM
Compound: CCN1CCN(CC)c2cc(Nc3ncc(Cl)c(Nc4ccccc4C(=O)NC)n3)ccc2C1 [Example 419, 2-[5-Chloro-2-(1,4-diethyl-2,3,4,5-tetrahydro-1H-benzo[e][1,4]diazepin-8-ylamino)-pyrimidin-4-ylamino]-N-methylbenzamide]

IC50 [1, 7]: 100 to 1000 nM | IC50 [2, 8]: 100 to 1000 nM
Compound: Cn1ccnc1-c1ccccc1Nc1nc(Nc2ccc3c(c2)CCC(NCC(F)F)CC3)ncc1Cl (stereo not shown) [Example 661, 5-Chloro-N*2*-[7-(2,2-difluoro-ethylamino)-6,7,8,9-tetrahydro-5H-benzocyclohepten-2-yl]-N*4*-[2-(1-methyl-1H-imidazol-2-yl)-phenyl]-pyrimidine-2,4-diamine]

IC50 [1, 9]: > 10000 nM | IC50 [2, 10]: 1000 to 10000 nM
Compound: CN1C(=O)OCCc2cc(Nc3ncc(Cl)c(Nc4ccccc4-c4cc[nH]n4)n3)ccc21 [Example 1767, 2-{5-Chloro-4-[2-(1H-pyrazol-3-yl)-phenylamino]-pyrimidin-2-ylamino}-5-methyl-8,9-dihydro-5H-7-oxa-5-aza-benzocyclohepten-6-one]

IC50 [1, 7]: < 100 nM | IC50 [2, 8]: > 10000 nM
Compound: (1S,2S,3R,4R)-3-{5-Chloro-2-[6-(2-hydroxy-ethylamino)-1-methoxy-6,7,8,9-tetrahydro-5H-benzocyclohepten-2-ylamino]-pyrimidin-4-ylamino}-bicyclo[2.2.1]hept-5-ene-2-carboxylic acid amide [Example 960]

Compound: CNC(=O)c1sccc1Nc1nc(Nc2ccc3c(c2)N(C(C)=O)CCCO3)ncc1Cl [Example 1702, 3-[2-(9-Acetyl-6,7,8,9-tetrahydro-5-oxa-9-aza-benzocyclohepten-2-ylamino)-5-chloro-pyrimidin-4-ylamino]-thiophene-2-carboxylic acid methylamide]
IC50 [1, 9]: 1000 to 10000 nM | IC50 ([2]; cMet Activity, c-Met kinase inhibition, 1 μM ATP): < 100 nM

IC50 [1, 7]: < 100 nM | IC50 [2, 8]: > 10000 nM
Compound: COc1cc(N2CCOCC2)ccc1Nc1nc(Nc2ccc3c(c2OC)CCC(N2CCOCC2)CC3)ncc1Cl (stereo not shown) [Example 894, 5-Chloro-N*4*-(2-methoxy-4-morpholin-4-yl-phenyl)-N*2*-(1-methoxy-7-morpholin-4-yl-6,7,8,9-tetrahydro-5H-benzocyclohepten-2-yl)-pyrimidine-2,4-diamine]

IC50 [1, 5]: < 100 nM | IC50 [2, 6]: 1000 to 10000 nM
Compound: COc1c(Nc2ncc(Cl)c(Nc3ccccc3S(=O)(=O)N(C)C)n2)ccc2c1CC(N1CCOCC1)CCC2 (racemic) [Example 1210, 2-[5-Chloro-2-(1-methoxy-8-morpholin-4-yl-6,7,8,9-tetrahydro-5H-benzocyclohepten-2-ylamino)-pyrimidin-4-ylamino]-N,N-dimethyl-benzenesulfonamide]

IC50 [1, 3]: 1000 to 10000 nM | IC50 [2, 4]: < 100 nM
Compound: CCOC(=O)N1CC(=O)N(CC)c2cc(Nc3ncc(Cl)c(Nc4c(F)cccc4C(=O)NC)n3)ccc2C1 [Example 1875, 8-[5-Chloro-4-(2-fluoro-6-methylcarbamoyl-phenylamino)-pyrimidin-2-ylamino]-1-ethyl-2-oxo-1,2,3,5-tetrahydro-benzo[e][1,4]diazepine-4-carboxylic acid ethyl ester]

IC50 [1, 5]: < 100 nM | IC50 [2, 6]: 100 to 1000 nM
Compound: COCCN1CCc2ccc(Nc3ncc(Cl)c(Nc4ccccc4OCC(=O)O)n3)cc2CC1 [Example 1242, (2-{5-Chloro-2-[3-(2-methoxy-ethyl)-2,3,4,5-tetrahydro-1H-3-benzazepin-7-ylamino]-pyrimidin-4-ylamino}-phenoxy)-acetic acid]
